In ChEMBL document CHEMBL5653631, “A Potent and Selective ULK1 Inhibitor Suppresses Autophagy and Sensitizes Cancer Cells to Nutrient Stress” (iScience, 2018):
Values belong to the compound of their own block, whether it stands above or below them.

Tests used:
[1] = target: Serine/threonine-protein kinase MARK2 (Homo sapiens) (UniProt Q7KZI7); test: Inhibition of human recombinant MARK2 at 500 nM in presence of ATP by radiometric assay relative to control
[2] = target: Platelet-derived growth factor receptor beta (Homo sapiens) (UniProt P09619); test: Inhibition of human recombinant PDGFRb at 500 nM in presence of ATP by radiometric assay relative to control
[3] = target: SRSF protein kinase 2 (Homo sapiens) (UniProt P78362); test: Inhibition of human recombinant SRPK2 at 500 nM in presence of ATP by radiometric assay relative to control
[4] = target: Serine/threonine-protein kinase tousled-like 2 (Homo sapiens) (UniProt Q86UE8); test: Inhibition of human recombinant TLK2 at 500 nM in presence of ATP by radiometric assay relative to control
[5] = target: Serine/threonine-protein kinase WNK1 (Homo sapiens) (UniProt Q9H4A3); test: Inhibition of human recombinant Wnk1 at 500 nM in presence of ATP by radiometric assay relative to control
[6] = target: Calcium/calmodulin-dependent protein kinase type II subunit beta (Homo sapiens) (UniProt Q13554); test: Inhibition of human recombinant CaMK2b at 500 nM related to control ULK1
[7] = target: TRAF2 and NCK-interacting protein kinase (Homo sapiens) (UniProt Q9UKE5); test: Inhibition of human recombinant TNIK at 500 nM related to control ULK1
[8] = target: Serine/threonine-protein kinase VRK2 (Homo sapiens) (UniProt Q86Y07); test: Inhibition of human recombinant VRK2 at 500 nM related to control ULK1
[9] = target: cAMP-dependent protein kinase catalytic subunit beta (Homo sapiens) (UniProt P22694); test: Inhibition of human recombinant PKACbeta at 40 nM in presence of ATP by radiometric assay relative to control
[10] = target: T1, Serine/threonine-protein kinase Sgk1 (Homo sapiens) (UniProt O00141); test: Inhibition of human recombinant SGK1 at 40 nM in presence of ATP by radiometric assay relative to control
T1 sequence (whole entry): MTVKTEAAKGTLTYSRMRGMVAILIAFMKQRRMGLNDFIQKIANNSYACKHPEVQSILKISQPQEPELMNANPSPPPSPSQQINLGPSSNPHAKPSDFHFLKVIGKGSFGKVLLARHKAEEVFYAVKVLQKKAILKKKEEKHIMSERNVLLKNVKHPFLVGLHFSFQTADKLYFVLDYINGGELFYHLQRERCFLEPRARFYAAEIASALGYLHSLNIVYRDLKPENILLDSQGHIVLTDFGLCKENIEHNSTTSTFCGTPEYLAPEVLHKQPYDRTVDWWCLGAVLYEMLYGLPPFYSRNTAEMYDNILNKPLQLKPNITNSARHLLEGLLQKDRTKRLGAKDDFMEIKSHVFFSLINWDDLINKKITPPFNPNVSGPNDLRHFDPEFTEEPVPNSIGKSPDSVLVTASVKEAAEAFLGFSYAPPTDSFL

[11] = target: Serine/threonine-protein kinase 32C (Homo sapiens) (UniProt Q86UX6); test: Inhibition of human recombinant YANK3 at 40 nM in presence of ATP by radiometric assay relative to control
[12] = target: eIF-2-alpha kinase GCN2 (Homo sapiens) (UniProt Q9P2K8); test: Inhibition of human recombinant GCN2 at 40 nM related to control ULK1
[13] = target: SRSF protein kinase 3 (Homo sapiens) (UniProt Q9UPE1); test: Inhibition of human recombinant MSSK1 at 40 nM related to control ULK1
[14] = target: Serine/threonine-protein kinase Nek4 (Homo sapiens) (UniProt P51957); test: Inhibition of human recombinant NEK4 at 40 nM related to control ULK1
[15] = target: Mitogen-activated protein kinase 11 (Homo sapiens) (UniProt Q15759); test: Inhibition of human recombinant p38beta at 40 nM related to control ULK1
[16] = target: Transient receptor potential cation channel subfamily M member 7 (Homo sapiens) (UniProt Q96QT4); test: Inhibition of human recombinant ChaK1 at 15 nM in presence of ATP by radiometric assay relative to control
[17] = target: Mitogen-activated protein kinase 8 (Homo sapiens) (UniProt P45983); test: Inhibition of human recombinant JNK1 at 15 nM in presence of ATP by radiometric assay relative to control
[18] = target: Serine/threonine-protein kinase PLK2 (Homo sapiens) (UniProt Q9NYY3); test: Inhibition of human recombinant PLK2 at 15 nM in presence of ATP by radiometric assay relative to control
[19] = target: Cyclin-dependent kinase 7 (Homo sapiens) (UniProt P50613); test: Inhibition of human recombinant CDK7 at 15 nM related to control ULK1
[20] = target: Cyclin-dependent kinase-like 1 (Homo sapiens) (UniProt Q00532); test: Inhibition of human recombinant CDKL1 at 15 nM related to control ULK1
[21] = target: Tyrosine-protein kinase FRK (Homo sapiens) (UniProt P42685); test: Inhibition of human recombinant FRK at 15 nM related to control ULK1
[22] = target: G protein-coupled receptor kinase 5 (Homo sapiens) (UniProt P34947); test: Inhibition of human recombinant GPRK5 at 15 nM related to control ULK1
[23] = target: T2, Mitogen-activated protein kinase 12 (Homo sapiens) (UniProt P53778); test: Inhibition of human recombinant p38gamma at 15 nM related to control ULK1
T2 sequence (whole entry): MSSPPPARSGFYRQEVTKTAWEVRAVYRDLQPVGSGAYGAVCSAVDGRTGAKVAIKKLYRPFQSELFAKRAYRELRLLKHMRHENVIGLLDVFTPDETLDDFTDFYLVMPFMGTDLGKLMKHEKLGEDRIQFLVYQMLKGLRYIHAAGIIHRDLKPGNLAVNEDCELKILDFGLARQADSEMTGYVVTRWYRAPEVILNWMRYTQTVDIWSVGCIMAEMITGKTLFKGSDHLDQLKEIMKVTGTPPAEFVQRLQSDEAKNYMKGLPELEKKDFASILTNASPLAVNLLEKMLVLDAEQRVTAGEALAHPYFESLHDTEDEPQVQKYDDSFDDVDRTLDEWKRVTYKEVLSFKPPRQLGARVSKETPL

Chain of Mitogen-activated protein kinase 8 (Homo sapiens) (P45983 whole entry): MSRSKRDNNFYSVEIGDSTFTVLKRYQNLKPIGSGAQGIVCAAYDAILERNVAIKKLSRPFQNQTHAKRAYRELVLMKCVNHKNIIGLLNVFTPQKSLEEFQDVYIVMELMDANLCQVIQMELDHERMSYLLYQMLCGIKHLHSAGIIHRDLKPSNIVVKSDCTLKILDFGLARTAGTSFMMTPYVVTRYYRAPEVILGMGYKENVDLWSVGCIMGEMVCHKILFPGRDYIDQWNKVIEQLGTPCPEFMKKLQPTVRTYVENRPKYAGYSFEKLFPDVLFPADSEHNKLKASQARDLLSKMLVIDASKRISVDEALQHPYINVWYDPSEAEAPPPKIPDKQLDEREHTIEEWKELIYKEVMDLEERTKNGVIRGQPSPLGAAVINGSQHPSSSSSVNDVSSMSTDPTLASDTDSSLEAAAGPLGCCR
Chain of Tyrosine-protein kinase FRK (Homo sapiens) (P42685 whole entry): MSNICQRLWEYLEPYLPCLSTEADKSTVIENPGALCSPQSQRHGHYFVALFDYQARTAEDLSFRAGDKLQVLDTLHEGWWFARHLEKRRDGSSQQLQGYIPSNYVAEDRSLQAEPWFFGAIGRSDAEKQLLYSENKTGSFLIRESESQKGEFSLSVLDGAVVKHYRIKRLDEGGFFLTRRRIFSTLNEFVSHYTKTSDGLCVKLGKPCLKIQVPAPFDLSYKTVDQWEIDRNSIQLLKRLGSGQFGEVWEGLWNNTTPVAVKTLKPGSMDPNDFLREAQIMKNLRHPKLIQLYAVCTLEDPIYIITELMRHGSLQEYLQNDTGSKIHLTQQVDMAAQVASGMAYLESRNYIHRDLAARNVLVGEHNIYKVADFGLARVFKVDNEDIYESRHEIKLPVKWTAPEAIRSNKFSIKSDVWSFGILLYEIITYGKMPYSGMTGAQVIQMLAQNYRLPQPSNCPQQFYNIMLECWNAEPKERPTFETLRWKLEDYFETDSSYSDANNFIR
Chain of eIF-2-alpha kinase GCN2 (Homo sapiens) (Q9P2K8 whole entry): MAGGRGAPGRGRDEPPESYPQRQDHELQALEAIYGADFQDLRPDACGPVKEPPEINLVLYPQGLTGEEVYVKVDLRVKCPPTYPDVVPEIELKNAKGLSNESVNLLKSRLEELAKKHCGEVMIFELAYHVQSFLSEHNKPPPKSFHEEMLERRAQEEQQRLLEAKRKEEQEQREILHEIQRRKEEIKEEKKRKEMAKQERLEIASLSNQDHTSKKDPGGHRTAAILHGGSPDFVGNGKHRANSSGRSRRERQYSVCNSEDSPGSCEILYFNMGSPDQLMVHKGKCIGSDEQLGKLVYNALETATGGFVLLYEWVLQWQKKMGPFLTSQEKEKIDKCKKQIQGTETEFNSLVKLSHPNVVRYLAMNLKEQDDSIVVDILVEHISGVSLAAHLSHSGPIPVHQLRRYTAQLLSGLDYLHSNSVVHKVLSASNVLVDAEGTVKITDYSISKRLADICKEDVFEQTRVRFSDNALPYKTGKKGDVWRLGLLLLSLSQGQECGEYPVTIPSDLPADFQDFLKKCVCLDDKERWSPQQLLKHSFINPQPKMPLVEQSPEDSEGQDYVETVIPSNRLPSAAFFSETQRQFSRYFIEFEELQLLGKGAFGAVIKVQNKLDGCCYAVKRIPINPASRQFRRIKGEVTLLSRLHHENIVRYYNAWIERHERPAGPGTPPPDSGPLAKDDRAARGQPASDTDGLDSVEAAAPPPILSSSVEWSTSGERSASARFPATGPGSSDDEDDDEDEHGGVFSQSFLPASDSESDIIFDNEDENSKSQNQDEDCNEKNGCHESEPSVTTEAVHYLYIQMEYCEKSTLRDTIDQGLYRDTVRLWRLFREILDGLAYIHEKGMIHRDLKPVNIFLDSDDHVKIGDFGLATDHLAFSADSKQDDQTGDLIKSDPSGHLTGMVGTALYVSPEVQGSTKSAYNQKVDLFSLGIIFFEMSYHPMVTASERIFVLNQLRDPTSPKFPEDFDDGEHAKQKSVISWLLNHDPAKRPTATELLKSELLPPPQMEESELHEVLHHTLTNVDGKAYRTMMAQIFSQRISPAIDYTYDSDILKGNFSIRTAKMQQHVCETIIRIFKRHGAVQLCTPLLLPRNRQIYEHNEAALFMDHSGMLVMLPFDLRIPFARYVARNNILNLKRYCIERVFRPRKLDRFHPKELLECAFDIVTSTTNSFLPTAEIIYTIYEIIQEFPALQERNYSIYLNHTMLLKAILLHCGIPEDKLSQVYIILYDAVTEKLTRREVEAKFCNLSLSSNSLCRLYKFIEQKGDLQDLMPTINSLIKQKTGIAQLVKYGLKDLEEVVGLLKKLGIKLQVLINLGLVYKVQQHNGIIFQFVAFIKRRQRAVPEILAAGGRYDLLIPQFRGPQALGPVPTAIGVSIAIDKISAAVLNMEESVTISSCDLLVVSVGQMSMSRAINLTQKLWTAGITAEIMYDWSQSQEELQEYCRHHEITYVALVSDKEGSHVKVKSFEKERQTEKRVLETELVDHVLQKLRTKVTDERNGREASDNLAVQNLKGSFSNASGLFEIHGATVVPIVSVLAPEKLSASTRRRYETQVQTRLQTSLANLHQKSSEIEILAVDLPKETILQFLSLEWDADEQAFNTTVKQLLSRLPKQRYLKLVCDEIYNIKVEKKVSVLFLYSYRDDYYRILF
Chain of Serine/threonine-protein kinase tousled-like 2 (Homo sapiens) (Q86UE8 whole entry, looked up): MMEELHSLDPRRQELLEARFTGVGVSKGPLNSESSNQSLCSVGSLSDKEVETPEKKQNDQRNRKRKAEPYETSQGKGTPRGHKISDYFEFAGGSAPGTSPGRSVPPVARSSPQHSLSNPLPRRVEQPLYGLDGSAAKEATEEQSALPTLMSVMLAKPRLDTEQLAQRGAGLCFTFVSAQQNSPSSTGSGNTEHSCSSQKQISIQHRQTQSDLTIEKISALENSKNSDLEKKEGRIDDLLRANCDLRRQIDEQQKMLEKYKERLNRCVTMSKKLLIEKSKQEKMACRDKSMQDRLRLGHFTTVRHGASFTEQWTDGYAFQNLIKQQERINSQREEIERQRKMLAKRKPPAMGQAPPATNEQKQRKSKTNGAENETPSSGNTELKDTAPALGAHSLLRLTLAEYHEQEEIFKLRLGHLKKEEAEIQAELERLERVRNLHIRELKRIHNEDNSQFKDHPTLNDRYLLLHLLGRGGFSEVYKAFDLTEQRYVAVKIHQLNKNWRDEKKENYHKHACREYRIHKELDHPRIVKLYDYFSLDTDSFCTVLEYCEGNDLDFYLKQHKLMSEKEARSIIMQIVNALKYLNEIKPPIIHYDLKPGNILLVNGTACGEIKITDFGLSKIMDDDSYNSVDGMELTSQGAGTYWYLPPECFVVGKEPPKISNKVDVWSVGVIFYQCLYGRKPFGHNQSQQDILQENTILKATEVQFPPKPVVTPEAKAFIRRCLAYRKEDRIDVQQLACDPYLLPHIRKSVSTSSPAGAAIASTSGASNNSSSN
Chain of G protein-coupled receptor kinase 5 (Homo sapiens) (P34947 whole entry, looked up): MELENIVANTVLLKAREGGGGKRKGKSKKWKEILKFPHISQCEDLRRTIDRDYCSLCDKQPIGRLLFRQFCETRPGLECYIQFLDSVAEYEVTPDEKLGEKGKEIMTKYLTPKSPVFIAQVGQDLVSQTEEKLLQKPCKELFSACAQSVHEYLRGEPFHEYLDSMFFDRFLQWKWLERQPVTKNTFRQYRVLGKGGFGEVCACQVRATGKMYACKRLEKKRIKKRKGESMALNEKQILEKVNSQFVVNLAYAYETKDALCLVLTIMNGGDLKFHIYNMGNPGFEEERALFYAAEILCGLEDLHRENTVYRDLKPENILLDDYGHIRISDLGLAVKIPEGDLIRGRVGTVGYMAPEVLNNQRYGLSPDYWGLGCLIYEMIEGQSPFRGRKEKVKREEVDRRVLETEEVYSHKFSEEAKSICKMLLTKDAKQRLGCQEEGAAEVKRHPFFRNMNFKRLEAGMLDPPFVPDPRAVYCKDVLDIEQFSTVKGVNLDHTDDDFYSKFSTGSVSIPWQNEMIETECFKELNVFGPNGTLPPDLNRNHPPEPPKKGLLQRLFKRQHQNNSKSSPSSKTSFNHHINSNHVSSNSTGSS
Chain of Serine/threonine-protein kinase PLK2 (Homo sapiens) (Q9NYY3 whole entry, looked up): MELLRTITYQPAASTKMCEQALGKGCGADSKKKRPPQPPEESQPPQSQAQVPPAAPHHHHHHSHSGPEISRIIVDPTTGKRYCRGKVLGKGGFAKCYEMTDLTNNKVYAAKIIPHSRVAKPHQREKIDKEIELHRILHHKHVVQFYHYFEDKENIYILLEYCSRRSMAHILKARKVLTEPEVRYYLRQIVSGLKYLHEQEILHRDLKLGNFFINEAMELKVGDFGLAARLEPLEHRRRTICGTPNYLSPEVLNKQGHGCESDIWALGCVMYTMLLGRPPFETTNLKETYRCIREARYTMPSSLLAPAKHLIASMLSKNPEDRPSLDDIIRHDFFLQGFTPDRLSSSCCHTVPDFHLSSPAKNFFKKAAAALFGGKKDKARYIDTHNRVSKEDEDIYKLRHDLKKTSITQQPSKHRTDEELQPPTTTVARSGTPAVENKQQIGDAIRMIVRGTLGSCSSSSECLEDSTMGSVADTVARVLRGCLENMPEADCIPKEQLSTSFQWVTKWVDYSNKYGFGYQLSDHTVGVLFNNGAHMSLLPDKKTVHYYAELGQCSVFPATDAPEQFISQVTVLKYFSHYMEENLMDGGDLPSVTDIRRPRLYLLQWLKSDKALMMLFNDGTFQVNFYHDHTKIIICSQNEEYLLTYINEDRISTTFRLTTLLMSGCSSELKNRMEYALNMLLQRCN
Chain of Mitogen-activated protein kinase 11 (Homo sapiens) (Q15759 whole entry): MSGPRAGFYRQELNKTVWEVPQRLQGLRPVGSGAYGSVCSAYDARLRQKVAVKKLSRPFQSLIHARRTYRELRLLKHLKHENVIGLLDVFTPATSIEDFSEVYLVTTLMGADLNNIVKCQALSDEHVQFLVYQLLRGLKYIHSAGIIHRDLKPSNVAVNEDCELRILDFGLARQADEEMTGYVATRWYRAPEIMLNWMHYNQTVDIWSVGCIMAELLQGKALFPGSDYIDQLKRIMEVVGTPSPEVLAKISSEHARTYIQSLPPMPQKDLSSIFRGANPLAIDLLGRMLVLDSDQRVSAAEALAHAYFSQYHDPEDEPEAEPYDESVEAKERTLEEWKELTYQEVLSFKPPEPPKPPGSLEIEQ

inhibition [1]: 50%
inhibition [2]: 0%
inhibition [3]: 5%
inhibition [4]: 0%
inhibition [5]: 0%
fold change (FC) [6]: 0
fold change (FC) [7]: 0.05
fold change (FC) [8]: 0.31
SMILES: CNC(=O)c1ccccc1Oc1nc(Nc2cc(OC)c(OC)c(OC)c2)ncc1Br

inhibition [9]: 0%
inhibition [10]: 7%
inhibition [11]: 5%
fold change (FC) [12]: 0.05
fold change (FC) [13]: 0.18
fold change (FC) [14]: 0.05
fold change (FC) [15]: 0.14
SMILES: O=C(N[C@@H](C1CC1)C(F)(F)F)c1cc(-c2cnn3cc(-c4ccc(F)cc4)cnc23)cs1

inhibition [16]: 12%
inhibition [17]: 8%
inhibition [18]: 4%
fold change (FC) [19]: 0.18
fold change (FC) [20]: 0.27
fold change (FC) [21]: 0.15
fold change (FC) [22]: 0
fold change (FC) [23]: 0.06
SMILES: CC(C)[C@H](NC(=O)c1cc(-c2cnn3cc(-c4ccc(OCCN5CCCCC5)cc4)cnc23)cs1)C(F)(F)F
